ChEMBL document CHEMBL1126154, “Pyrrole mannich bases as potential antipsychotic agents” (J Med Chem, 1992)

Legend:
Rattus norvegicus [1] = test: Antipsychotic activity at a dose 10 times the ED50 value for CAR block for production of catalepsy in the rat (following i.p. dosing); format: functional; conditions: ip
[2] = biological target: T1, Serotonin 1 (5-HT1) receptor (Rattus norvegicus, UniProt P28564+P30940+P19327+P28565); test: The compound was tested for its binding affinity towards 5-hydroxytryptamine 1 receptor by displacing [3H]5-HT radioligand in rat cerebral cortex; format: tissue-based
[3] = biological target: T2, Adrenergic receptor alpha-1 (Rattus norvegicus, UniProt P15823+P23944+P43140); test: The compound was tested for its binding affinity towards Alpha-1 adrenergic receptor by displacing [3H]WB-4101 radioligand in rat cerebral cortex; format: tissue-based
T2 sequence (P15823 whole entry): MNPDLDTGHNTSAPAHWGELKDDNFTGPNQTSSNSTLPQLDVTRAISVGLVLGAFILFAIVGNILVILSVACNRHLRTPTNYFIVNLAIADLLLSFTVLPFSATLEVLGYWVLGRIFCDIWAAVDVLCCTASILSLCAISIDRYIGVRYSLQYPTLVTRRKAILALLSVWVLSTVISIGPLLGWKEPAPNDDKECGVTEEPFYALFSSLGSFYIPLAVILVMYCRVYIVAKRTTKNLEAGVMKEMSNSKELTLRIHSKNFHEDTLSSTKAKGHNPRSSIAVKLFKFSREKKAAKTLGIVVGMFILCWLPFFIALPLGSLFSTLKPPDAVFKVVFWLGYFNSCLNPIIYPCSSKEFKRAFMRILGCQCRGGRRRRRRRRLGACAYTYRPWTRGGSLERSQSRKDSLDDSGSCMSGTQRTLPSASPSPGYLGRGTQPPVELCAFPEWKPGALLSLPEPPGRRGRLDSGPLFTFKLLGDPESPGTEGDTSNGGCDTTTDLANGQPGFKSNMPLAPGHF
T2 sequence (P23944 whole entry): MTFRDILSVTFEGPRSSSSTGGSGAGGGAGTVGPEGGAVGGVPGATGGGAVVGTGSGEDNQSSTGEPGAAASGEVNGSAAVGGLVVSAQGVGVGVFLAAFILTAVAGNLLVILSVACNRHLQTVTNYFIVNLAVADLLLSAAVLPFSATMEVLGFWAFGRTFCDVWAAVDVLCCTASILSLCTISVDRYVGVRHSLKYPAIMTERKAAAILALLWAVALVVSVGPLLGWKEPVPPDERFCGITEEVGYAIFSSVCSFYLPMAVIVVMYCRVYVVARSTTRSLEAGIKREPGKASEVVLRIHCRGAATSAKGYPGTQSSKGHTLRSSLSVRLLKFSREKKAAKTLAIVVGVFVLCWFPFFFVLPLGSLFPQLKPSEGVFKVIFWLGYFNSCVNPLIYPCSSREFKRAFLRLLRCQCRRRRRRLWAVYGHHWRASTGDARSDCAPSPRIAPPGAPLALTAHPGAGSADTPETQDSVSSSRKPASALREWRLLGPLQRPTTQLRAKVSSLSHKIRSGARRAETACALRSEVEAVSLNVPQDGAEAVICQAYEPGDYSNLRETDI
T2 sequence (P43140 whole entry): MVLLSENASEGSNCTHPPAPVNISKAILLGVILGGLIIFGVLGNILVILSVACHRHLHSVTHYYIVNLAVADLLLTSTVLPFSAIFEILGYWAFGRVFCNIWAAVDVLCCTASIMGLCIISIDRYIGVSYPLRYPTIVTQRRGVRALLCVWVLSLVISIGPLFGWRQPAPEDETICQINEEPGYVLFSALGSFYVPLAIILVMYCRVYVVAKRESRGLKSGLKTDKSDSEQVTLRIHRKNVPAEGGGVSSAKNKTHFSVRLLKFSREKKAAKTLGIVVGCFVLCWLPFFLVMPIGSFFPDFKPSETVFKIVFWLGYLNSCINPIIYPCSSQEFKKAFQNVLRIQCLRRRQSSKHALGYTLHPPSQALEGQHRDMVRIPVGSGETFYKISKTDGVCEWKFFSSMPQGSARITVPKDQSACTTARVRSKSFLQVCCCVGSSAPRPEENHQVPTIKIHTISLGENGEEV

[4] = biological target: Serotonin 2 (5-HT2) receptor (Rattus norvegicus, UniProt P30994+P08909+P14842); test: The compound was tested for its binding affinity towards 5-hydroxytryptamine 2 receptor by displacing [3H]ketanserin radioligand in rat cerebral cortex; format: tissue-based
Rattus norvegicus [5] = test: The percentage production of catalepsy in rat at a dose of 25 mg/kg ip.; format: functional
Rattus norvegicus [6] = test: The compound was measured at a dose 10 times the ED50 value for CAR block for production of catalepsy in the rat via oral administration.; format: functional; conditions: Rattus norvegicus, po; read-out: ED50
Rattus norvegicus [7] = organism: Rattus norvegicus; test: (§1) ED50 value for catalepsy indicates the dose required to produce a 50% of maximum catalepsy score; format: functional
[8] = biological target: T1, Serotonin 1 (5-HT1) receptor
Description: The binding affinity was measured on serotonin 5-hydroxytryptamine 1 receptor in rat brain tissue

Rattus norvegicus [9] = organism: Rattus norvegicus; test: ED50 value for catalepsy indicates the dose required to produce a 50% of maximum catalepsy score. parentheses value indicate 95% confidence limit.; format: functional
[10] = biological target: T3, 5-hydroxytryptamine receptor 1A (Rattus norvegicus, UniProt P19327); test: biochemical
T3 sequence (P19327 whole entry): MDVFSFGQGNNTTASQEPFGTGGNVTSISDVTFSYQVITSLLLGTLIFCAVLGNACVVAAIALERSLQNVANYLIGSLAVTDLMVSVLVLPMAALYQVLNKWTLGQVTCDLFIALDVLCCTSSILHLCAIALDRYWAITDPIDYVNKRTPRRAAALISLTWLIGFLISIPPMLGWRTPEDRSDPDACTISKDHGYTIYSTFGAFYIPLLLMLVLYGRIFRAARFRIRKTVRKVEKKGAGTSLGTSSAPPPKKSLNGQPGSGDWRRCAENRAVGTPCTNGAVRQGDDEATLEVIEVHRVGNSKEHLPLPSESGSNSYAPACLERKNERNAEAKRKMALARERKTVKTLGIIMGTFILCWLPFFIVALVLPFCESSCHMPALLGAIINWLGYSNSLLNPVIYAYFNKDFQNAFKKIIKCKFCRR
Description: The compound was tested for its binding affinity towards 5-hydroxytryptamine 1A receptor by displacing [3H]WB-4101 radioligand in rat hippocampus

[11] = biological target: T3, 5-hydroxytryptamine receptor 1A; test: Binding affinity towards 5-hydroxytryptamine 1A receptor by displacing [3H]WB-4101 from rat hippocampus; format: tissue-based
[12] = biological target: 5-hydroxytryptamine receptor 1B (Rattus norvegicus, UniProt P28564); test: The compound was tested for its binding affinity towards 5-hydroxytryptamine 1B receptor by displacing [3H]serotonin radioligand in rat cerebral cortex; format: tissue-based
Rattus norvegicus [13] = test: The percentage production of catalepsy in rat at a dose of 40 mg/kg ip.; format: functional
Rattus norvegicus [14] = test: The percentage production of catalepsy in rat at a dose of 58 mg/kg ip.; format: functional
Rattus norvegicus [15] = test: The percentage production of catalepsy in rat at a dose of 4 mg/kg ip.; format: functional
Rattus norvegicus [16] = organism: Rattus norvegicus; test: as §1; format: functional, organism-based
Rattus norvegicus [17] = organism: Rattus norvegicus; test: The compound was measured at a dose 10 times the ED50 value for CAR block for production of catalepsy in the rat; format: functional, organism-based

Sequence of 5-hydroxytryptamine receptor 1B (P28564 whole entry): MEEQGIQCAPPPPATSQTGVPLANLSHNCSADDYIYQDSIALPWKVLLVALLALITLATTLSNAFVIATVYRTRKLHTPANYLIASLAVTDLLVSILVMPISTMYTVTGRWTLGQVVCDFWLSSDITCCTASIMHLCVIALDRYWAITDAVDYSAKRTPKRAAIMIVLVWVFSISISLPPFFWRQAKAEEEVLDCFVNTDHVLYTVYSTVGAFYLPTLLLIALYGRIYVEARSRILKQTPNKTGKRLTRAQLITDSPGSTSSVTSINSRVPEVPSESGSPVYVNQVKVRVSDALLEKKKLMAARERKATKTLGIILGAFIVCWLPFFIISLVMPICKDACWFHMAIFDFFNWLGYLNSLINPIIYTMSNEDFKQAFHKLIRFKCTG

Ki [2] [nM] | Ki [3] [nM] | Ki [4] [nM] | SMILES | ED50 (Rattus norvegicus [1]) [mg/kg] | further results
304 | 38.2 | 227 | CCc1ccccc1N1CCN(Cc2ccc(CN3CCCC3=O)n2C)CC1 | 15 | –
139 | 166 | – | COc1ccccc1N1CCN(Cc2ccc(CN3CCCCC3=O)n2C)CC1 | 2.3 | % catalepsy at 25 mg/kg (Rattus norvegicus [5]): 39.8%; ED50 (Rattus norvegicus [6]): 9.7 mg/kg
– | > 1000 | – | CCN1CCC[C@H]1CNC(=O)c1cc(S(N)(=O)=O)ccc1OC [LEVOSULPIRIDE] | > 40 | ED50 (Rattus norvegicus [7]): > 40 mg/kg
– | – | – | O=C1CCCN1Cc1ccc(CN2CCN(c3ccccc3)CC2)[nH]1 | > 15 | –
– | – | – | O=C1CC2(CCCC2)CC(=O)N1CCCCN1CCN(c2ncccn2)CC1 [BUSPIRONE] | 4.5 | –
– | – | – | CCCCc1ccccc1N1CCN(Cc2ccc(CN3CCCC3=O)n2C)CC1 | > 15 | –
– | – | – | CN(C)CCCN1c2ccccc2Sc2ccc(Cl)cc21 [CHLORPROMAZINE] | 1.9 | Ki [8]: > 1000 nM; ED50 (Rattus norvegicus [9]): 9.4 mg/kg; Ki [10]: 179 nM
18.1 | 20.8 | 260 | CC(C)Oc1ccccc1N1CCN(Cc2ccc(CN3CCCCCCC3=O)n2C)CC1 | 4 | Ki [11]: 1.7 nM; Ki [12]: 75 nM; % catalepsy at 40 mg/kg (Rattus norvegicus [13]): 4.2%; ED50 (Rattus norvegicus [6]): > 30 mg/kg
156 | > 1000 | 1000 | Cn1c(CN2CCN(c3cccc(C(F)(F)F)c3)CC2)ccc1CN1CCCC1=O | 5.8 | % catalepsy at 58 mg/kg (Rattus norvegicus [14]): 56%
196 | 264 | 256 | Cn1c(CN2CCN(c3cccc(Cl)c3)CC2)ccc1CN1CCCC1=O | 12.3 | –
140 | 63.7 | – | Cn1c(CN2CCN(c3ccccc3C#N)CC2)ccc1CN1CCCC1=O | > 15 | –
> 1000 | > 100 | > 100 | Cn1c(CN2CCN(c3cccc([N+](=O)[O-])c3)CC2)ccc1CN1CCCC1=O | 15 | –
– | 53.1 | – | Cn1c(CN2CCN(c3ccccc3Cl)CC2)ccc1CN1CCCC1=O | > 15 | –
> 1000 | 1000 | – | COc1cccc(N2CCN(Cc3ccc(CN4CCCC4=O)n3C)CC2)c1 | > 7.5 | –
– | 140 | – | Cn1c(CN2CCN(c3ccccc3O)CC2)ccc1CN1CCCC1=O | > 15 | –
27.3 | 11.3 | 355 | CCc1ccccc1N1CCN(Cc2ccc(CN3CCCCC3=O)n2C)CC1 | > 15 | Ki [11]: 30 nM; Ki [12]: 100 nM
185 | 44.9 | > 1000 | COc1ccccc1N1CCN(Cc2ccc(CN3CCCC3=O)n2C)CC1 | 2.1 | % catalepsy at 25 mg/kg (Rattus norvegicus [5]): 31%; Ki [11]: 17.2 nM; ED50 (Rattus norvegicus [6]): > 20 mg/kg

Ki [2] [nM] | Ki [3] [nM] | Ki [4] [nM] | SMILES | ED50 (Rattus norvegicus [1]) [mg/kg] | further results
– | – | – | O=C(CCCN1CCC(O)(c2ccc(Cl)cc2)CC1)c1ccc(F)cc1 [HALOPERIDOL] | – | ED50 (Rattus norvegicus [9]): 0.36 mg/kg
41 | 23.1 | 1000 | COc1ccccc1N1CCN(Cc2ccc(CN3CCCCCCC3=O)n2C)CC1 | 8.2 | % catalepsy at 25 mg/kg (Rattus norvegicus [5]): 16.3%; ED50 (Rattus norvegicus [6]): > 27 mg/kg
283 | 26.6 | 317 | CCCc1ccccc1N1CCN(Cc2ccc(CN3CCCC3=O)n2C)CC1 | > 30 | –
58.9 | 15.7 | 237 | CCCCOc1ccccc1N1CCN(Cc2ccc(CN3CCCCCC3=O)n2C)CC1 | > 15 | –
1000 | > 100 | > 100 | Cn1c(CN2CCN(c3cccc(F)c3)CC2)ccc1CN1CCCC1=O | > 15 | –
– | 100 | – | COc1ccccc1N1CCN(Cc2ccc(CN3CCCC3=O)n2-c2ccccc2)CC1 | > 15 | –
76 | 20 | 409 | CC(C)c1ccccc1N1CCN(Cc2ccc(CN3CCCC3=O)n2C)CC1 | 5.8 | –
148 | 43.1 | 1000 | COc1ccccc1N1CCN(Cc2ccc(CN3CCCC3=O)[nH]2)CC1 | > 15 | –
– | – | – | Cc1nc2n(c(=O)c1CCN1CCC(c3noc4cc(F)ccc34)CC1)CCCC2 [RISPERIDONE] | – | % catalepsy at 4 mg/kg (Rattus norvegicus [15]): 50%; ED50 (Rattus norvegicus [16]): 3.5 mg/kg; ED50 (Rattus norvegicus [17]): 0.32 mg/kg; ED50 (Rattus norvegicus [6]): 2.2 mg/kg
– | – | 669 | Cn1c(CN2CCN(c3cccc([N+](=O)[O-])c3)CC2)ccc1CN1CCCCC1=O | > 15 | –
50.2 | 35.9 | 196 | CC(C)c1ccccc1N1CCN(Cc2ccc(CN3CCCCCCC3=O)n2C)CC1 | > 15 | –
– | 436 | – | Cn1c(CN2CCN(c3ccccc3)CC2)ccc1CN1CCCC1=O | > 15 | –
1000 | 136 | – | Cc1ccccc1N1CCN(Cc2ccc(CN3CCCC3=O)n2C)CC1 | > 15 | –
> 1000 | 29.3 | – | CN1CCN(CCCN2c3ccccc3Sc3ccc(C(F)(F)F)cc32)CC1 [TRIFLUOPERAZINE] | 0.5 | ED50 (Rattus norvegicus [7]): 1.7 mg/kg; Ki [11]: 411 nM
33.1 | 5.2 | 55.3 | CC(C)Oc1ccccc1N1CCN(Cc2ccc(CN3CCCCC3=O)[nH]2)CC1 | 4 | Ki [11]: 5.4 nM; % catalepsy at 40 mg/kg (Rattus norvegicus [13]): 10%
120 | 43.7 | 669 | COc1ccccc1N1CCN(Cc2ccc(CN3CCCCCC3=O)n2C)CC1 | 2.1 | % catalepsy at 25 mg/kg (Rattus norvegicus [5]): 51%; ED50 (Rattus norvegicus [6]): 30.5 mg/kg
